Data from ChEMBL document CHEMBL1156829 (Proc Natl Acad Sci U S A, 2008).

Experiments:
[1] = NOVARTIS: Cytotoxicity against human hepatocellular carcinoma cell line (Huh7); type: toxicity, cell-based, Huh-7; conditions: Huh7 cells (hepatocellular carcinoma cell line)
Plasmodium falciparum [2] = assay: NOVARTIS: Inhibition of Plasmodium falciparum 3D7 (drug-susceptible) proliferation in erythrocyte-based infection assay; type: functional, organism-based; conditions: Plasmodium falciparum, 3D7
Plasmodium falciparum [3] = assay: NOVARTIS: Inhibition of Plasmodium falciparum W2 (drug-resistant) proliferation in erythrocyte-based infection assay; type: functional, organism-based; conditions: Plasmodium falciparum, W2; read-out: EC50

## CSC1=NC(=Nc2c(C)cccc2C)C2(CCC(C(C)(C)C)CC2)N1c1ccc(Cl)cc1 (centres undefined)
[1]
  CC50: > 67.3 µM
Plasmodium falciparum [2]
  EC50: 1.48 µM
Plasmodium falciparum [3]
  EC50: > 10 µM

## NC(=O)NN=C1c2cc(S(=O)(=O)NCc3ccco3)ccc2-c2ccc(S(=O)(=O)NCc3ccco3)cc21
[1]
  CC50: > 10 µM
Plasmodium falciparum [2]
  EC50: 1.18 µM
Plasmodium falciparum [3]
  EC50: > 1.54 µM

## Cc1nc(-c2ccccn2)nc(NCCc2ccccc2)c1Cl
[1]
  CC50: > 10 µM
Plasmodium falciparum [2]
  EC50: 1.25 µM
Plasmodium falciparum [3]
  EC50: 1.51 µM

## CN(C)c1ccc(N2C(N)=NC(N)=NC23CCCC3)cc1
[1]
  CC50: > 10 µM
Plasmodium falciparum [2]
  EC50: 0.244 µM
Plasmodium falciparum [3]
  EC50: > 1.57 µM

## O=C(Cc1ccccc1)Nc1ccc(C(=O)Nc2ccc(-c3nc4ccc(NC(=O)c5ccc(NC(=O)Cc6ccccc6)cc5)c(Cl)c4[nH]3)cc2)cc1
[1]
  CC50: 40 µM
Plasmodium falciparum [2]
  EC50: 8 µM
Plasmodium falciparum [3]
  EC50: 6.02 µM

## COc1ccc(-c2cc(-c3ccccc3)nc(SCC(=O)N3c4ccccc4Sc4ccc(Cl)cc43)c2C#N)cc1
[1]
  CC50: > 10 µM
Plasmodium falciparum [2]
  EC50: > 0.427 µM
Plasmodium falciparum [3]
  EC50: > 1.53 µM

## O=C(c1cccs1)N1CCN(c2ccccn2)CC1
[1]
  CC50: > 10 µM
Plasmodium falciparum [2]
  EC50: 2.02 µM
Plasmodium falciparum [3]
  EC50: > 1.56 µM

## O=c1c2sccc2nc(SCc2cccc([N+](=O)[O-])c2)n1C1CC1
[1]
  CC50: > 10 µM
Plasmodium falciparum [2]
  EC50: 1.25 µM
Plasmodium falciparum [3]
  EC50: > 1.52 µM

## COc1cc(OC)c(OC)cc1CN1CCN(C(C)C)CC1
[1]
  CC50: > 10 µM
Plasmodium falciparum [2]
  EC50: > 1.01 µM
Plasmodium falciparum [3]
  EC50: > 1.48 µM

## O=C(Nc1ccc(-c2nc3cc(NC(=O)c4ccc(Cl)cc4)ccc3[nH]2)cc1)c1ccc(Cl)cc1
[1]
  CC50: 83.8 µM
Plasmodium falciparum [2]
  EC50: 0.993 µM
Plasmodium falciparum [3]
  EC50: > 12.5 µM

## CCCCCC[n+]1ccccc1C=Cc1ccc(N(C)C)cc1
[1]
  CC50: 1.6 µM
Plasmodium falciparum [2]
  EC50: 0.118 µM
Plasmodium falciparum [3]
  EC50: 0.238 µM

## O=C(Nc1ccc(-n2cccn2)cc1)C1CCN(C/C=C/c2ccccc2)CC1
[1]
  CC50: > 10 µM
Plasmodium falciparum [2]
  EC50: 0.464 µM
Plasmodium falciparum [3]
  EC50: 1.54 µM

## Cc1ccc(NC(=O)CN2CCN(c3ccccn3)CC2)cc1F
[1]
  CC50: > 10 µM
Plasmodium falciparum [2]
  EC50: 2.08 µM
Plasmodium falciparum [3]
  EC50: > 1.54 µM

## Cc1ccccc1Nc1sc(C(=O)c2ccc([N+](=O)[O-])cc2)c(N)c1C(=O)Nc1ccccc1
[1]
  CC50: > 10 µM
Plasmodium falciparum [2]
  EC50: > 1.2 µM
Plasmodium falciparum [3]
  EC50: > 1.54 µM

## O=C(CN(CCN1CCOCC1)S(=O)(=O)c1ccccn1)N1CCN(C(c2ccccc2)c2ccccc2)CC1
[1]
  CC50: > 28.8 µM
Plasmodium falciparum [2]
  EC50: > 12.5 µM
Plasmodium falciparum [3]
  EC50: 4.44 µM

## COc1ccc2nc(C)cc(N(c3ccc(Br)cc3)S(=O)(=O)c3ccc([N+](=O)[O-])cc3)c2c1
[1]
  CC50: 6.83 µM
Plasmodium falciparum [2]
  EC50: 0.647 µM
Plasmodium falciparum [3]
  EC50: 1.05 µM

## C=CCNC(=O)c1ccc2c(c1)N=C(CC(C)c1ccccc1)N(CC1CCCCC1)C2 (centres undefined)
[1]
  CC50: > 10 µM
Plasmodium falciparum [2]
  EC50: > 1.25 µM
Plasmodium falciparum [3]
  EC50: 1.53 µM

## COc1ccc(C2=C(c3ccc(OC)cc3)C3C(=O)C2C2C(=O)N(c4cccc5ccccc45)C(=O)C32)cc1 (centres undefined)
[1]
  CC50: > 10 µM
Plasmodium falciparum [2]
  EC50: > 1.09 µM
Plasmodium falciparum [3]
  EC50: > 1.51 µM

## CCCCCCCCCCCCOCCCNC(=O)c1cccc(N)c1
[1]
  CC50: > 10 µM
Plasmodium falciparum [2]
  EC50: 1.57 µM
Plasmodium falciparum [3]
  EC50: > 1.56 µM

## COc1ccc(C2C(C(=O)OC3CCCCC3)=C(C)Nc3nnnn32)cc1 (centres undefined)
[1]
  CC50: > 74.1 µM
Plasmodium falciparum [2]
  EC50: > 10 µM
Plasmodium falciparum [3]
  EC50: > 11.2 µM

## CC(C)CNC(=O)c1cnc(NCCCN2CCCCC2C)nc1NCCc1ccccc1 (centres undefined)
[1]
  CC50: > 10 µM
Plasmodium falciparum [2]
  EC50: 0.374 µM
Plasmodium falciparum [3]
  EC50: 1.57 µM

## Cc1ccc2nc3c(c(NCCCN(C)C)c2c1)CCC3
[1]
  CC50: > 10 µM
Plasmodium falciparum [2]
  EC50: 0.935 µM
Plasmodium falciparum [3]
  EC50: 1.56 µM

## CC1CCCCN1CCCNc1ncc(C(=O)NCCc2ccccc2)c(NCC2CCCO2)n1 (centres undefined)
[1]
  CC50: > 10 µM
Plasmodium falciparum [2]
  EC50: 0.914 µM
Plasmodium falciparum [3]
  EC50: > 1.56 µM

## CN1[C@@H](C(=O)Nc2ccc3c(c2)OCO3)C[C@@H](c2ccc(F)cc2)NS1(=O)=O
[1]
  CC50: > 10 µM
Plasmodium falciparum [2]
  EC50: 1.96 µM
Plasmodium falciparum [3]
  EC50: > 1.57 µM

## CCOC(=O)NN=C1C=C2C=CC3C(CC[C@@]4(C)C3CC3CCCCC34C(C)=O)[C@@]2(C)CC1 (some centres undefined)
[1]
  CC50: > 10 µM
Plasmodium falciparum [2]
  EC50: > 0.902 µM
Plasmodium falciparum [3]
  EC50: > 1.56 µM

## NCCCNc1ncc(C(=O)NCc2ccccc2)c(NCC2CCCCC2)n1
[1]
  CC50: 5.14 µM
Plasmodium falciparum [2]
  EC50: 0.0912 µM
Plasmodium falciparum [3]
  EC50: 0.799 µM

## O=[N+]([O-])c1cccc2c(S(=O)(=O)NCCCN(CCO)CCO)cccc12
[1]
  CC50: > 10 µM
Plasmodium falciparum [2]
  EC50: > 1.18 µM
Plasmodium falciparum [3]
  EC50: > 1.55 µM

## O=C(Nc1ccc(N2CCCCC2)cc1)N1CCc2nc[nH]c2C1
[1]
  CC50: > 6.67 µM
Plasmodium falciparum [2]
  EC50: > 1.25 µM
Plasmodium falciparum [3]
  EC50: 1.01 µM

## N#CCSc1nc2ccccc2c2nc(CCc3c[nH]c4ccccc34)nn12
[1]
  CC50: 25.4 µM
Plasmodium falciparum [2]
  EC50: 3.87 µM
Plasmodium falciparum [3]
  EC50: 3.85 µM

## COc1ccc(C(=O)/C(C#N)=C/NC2CCN(Cc3ccccc3)CC2)cc1
[1]
  CC50: > 10 µM
Plasmodium falciparum [2]
  EC50: 0.256 µM
Plasmodium falciparum [3]
  EC50: > 1.57 µM

## CCCN1CCC(N2C[C@@H](NCc3cc(C)ccc3C)C[C@H]2C(=O)NCCc2ccc3c(c2)OCO3)CC1
[1]
  CC50: 4.2 µM
Plasmodium falciparum [2]
  EC50: 0.478 µM
Plasmodium falciparum [3]
  EC50: 0.661 µM

## Cc1cc(I)ccc1N1C(=O)C2C3c4ccccc4C(CO)(c4ccccc43)C2C1=O (centres undefined)
[1]
  CC50: > 67.9 µM
Plasmodium falciparum [2]
  EC50: > 11.2 µM
Plasmodium falciparum [3]
  EC50: > 10.1 µM

## Cc1c(C(=O)Nc2ccccc2)sc2ncn(Cc3ccccc3F)c(=O)c12
[1]
  CC50: > 10 µM
Plasmodium falciparum [2]
  EC50: > 0.875 µM
Plasmodium falciparum [3]
  EC50: > 1.48 µM

## CCC(c1nc2ccccc2c(=O)n1-c1ccc(F)cc1)N(CCc1ccccc1)C(=O)CCc1ccccc1 (centres undefined)
[1]
  CC50: > 10 µM
Plasmodium falciparum [2]
  EC50: 1.52 µM
Plasmodium falciparum [3]
  EC50: 1.54 µM

## c1ccc(C[C@H]2CN(c3ccc4ccccc4c3)CCN2CCNCC2CCCO2)cc1 (some centres undefined)
[1]
  CC50: 2.54 µM
Plasmodium falciparum [2]
  EC50: 0.273 µM
Plasmodium falciparum [3]
  EC50: 0.38 µM

## C=CCSC1=NC2(CC(c3ccccc3)c3cc(Cl)c(O)cc3O2)CC(C)(C)N1 (centres undefined)
[1]
  CC50: > 10 µM
Plasmodium falciparum [2]
  EC50: > 1.19 µM
Plasmodium falciparum [3]
  EC50: 1.52 µM

## COc1c([N+](=O)[O-])cc2c(c1Br)OC1(C=C2)N(C)c2ccccc2C1(C)C (centres undefined)
[1]
  CC50: > 10 µM
Plasmodium falciparum [2]
  EC50: 1.74 µM
Plasmodium falciparum [3]
  EC50: > 1.57 µM

## CC(=O)Nc1cc([N+](=O)[O-])ccc1N1CCOCC1
[1]
  CC50: > 10 µM
Plasmodium falciparum [2]
  EC50: > 1.55 µM
Plasmodium falciparum [3]
  EC50: 1.51 µM

## COC(=O)c1ccc(NC(=O)CSc2nc3cc4c(cc3cc2C#N)OCCO4)cc1
[1]
  CC50: > 10 µM
Plasmodium falciparum [2]
  EC50: 1.61 µM
Plasmodium falciparum [3]
  EC50: 1.54 µM

## Cn1c(=O)c2c(nc3n(CCCO)c(C45CC6CC(CC(C6)C4)C5)cn23)n(C)c1=O
[1]
  CC50: > 10 µM
Plasmodium falciparum [2]
  EC50: > 1.25 µM
Plasmodium falciparum [3]
  EC50: 1.54 µM

## O=C1C=C(Nc2ccc(O)cc2)c2ccccc2C1=O
[1]
  CC50: 5.12 µM
Plasmodium falciparum [2]
  EC50: 0.73 µM
Plasmodium falciparum [3]
  EC50: 0.785 µM

## O=C1Nc2ccc(S(=O)(=O)Nc3ccc(NS(=O)(=O)c4ccc5c6c(cccc46)C(=O)N5)cc3)c3cccc1c23
[1]
  CC50: > 8.12 µM
Plasmodium falciparum [2]
  EC50: > 1.18 µM
Plasmodium falciparum [3]
  EC50: > 1.25 µM

## COc1cc2c(O[C@@H]3O[C@H](CO)[C@@H](O)[C@H](O)[C@H]3O)c3c(c(-c4ccc5c(c4)OCO5)c2cc1OC)C(=O)OC3
[1]
  CC50: 0.784 µM
Plasmodium falciparum [2]
  EC50: 0.0743 µM
Plasmodium falciparum [3]
  EC50: 0.12 µM

## C=CCN1C(=O)/C(=C\c2cc(Cl)c(O)c(OC)c2)C(=O)NC1=S
[1]
  CC50: > 10 µM
Plasmodium falciparum [2]
  EC50: 2.11 µM
Plasmodium falciparum [3]
  EC50: > 1.48 µM

## Cc1ccc(N2C3c4ccccc4N(S(=O)(=O)c4ccc(C)cc4)C2c2ccccc2N3S(=O)(=O)c2ccc(C)cc2)cc1
[1]
  CC50: > 10 µM
Plasmodium falciparum [2]
  EC50: 0.72 µM
Plasmodium falciparum [3]
  EC50: 1.49 µM

## CCN1CCN(c2cc(C)c3cc(NC(=O)/C=C/c4sccc4C)ccc3n2)CC1
[1]
  CC50: > 10 µM
Plasmodium falciparum [2]
  EC50: 1.59 µM
Plasmodium falciparum [3]
  EC50: > 1.55 µM

## CCOC(=O)CN(N=O)C1=C(N2CC2)C(=O)c2ccccc2C1=O
[1]
  CC50: 25.4 µM
Plasmodium falciparum [2]
  EC50: 0.206 µM
Plasmodium falciparum [3]
  EC50: 3.85 µM

## Fc1ccc(Nc2nc(OC(C(F)(F)F)C(F)(F)F)nc(OC(C(F)(F)F)C(F)(F)F)n2)cc1
[1]
  CC50: > 10 µM
Plasmodium falciparum [2]
  EC50: > 1.34 µM
Plasmodium falciparum [3]
  EC50: 1.57 µM
